Source: patent US10426850B2, “Collagen mimetic peptides for targeting collagen strands for in vitro and in vivo imaging and therapeutic use” (The Johns Hopkins University, priority 2011, dated 2019)

Key:
complement factor C1q = target: T1, complement factor C1q (Homo sapiens, UniProt P02745+P02746+P02747); assay: SDS-PAGE staining of collagen-like protein C1q; assay type: binding; details: 6 μM, heat activated, 2 μg
T1 construct: Complement component C1q from human serum; purchased Sigma-Aldrich; host or cells: human serum
T1 sequence (P02745 23-245): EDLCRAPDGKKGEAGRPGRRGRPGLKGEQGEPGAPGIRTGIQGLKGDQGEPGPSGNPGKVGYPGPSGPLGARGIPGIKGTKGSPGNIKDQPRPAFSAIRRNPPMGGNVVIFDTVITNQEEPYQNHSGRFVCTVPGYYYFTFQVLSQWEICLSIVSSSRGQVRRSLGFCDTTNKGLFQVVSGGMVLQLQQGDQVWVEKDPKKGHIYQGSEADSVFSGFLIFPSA
T1 sequence (P02746 28-253): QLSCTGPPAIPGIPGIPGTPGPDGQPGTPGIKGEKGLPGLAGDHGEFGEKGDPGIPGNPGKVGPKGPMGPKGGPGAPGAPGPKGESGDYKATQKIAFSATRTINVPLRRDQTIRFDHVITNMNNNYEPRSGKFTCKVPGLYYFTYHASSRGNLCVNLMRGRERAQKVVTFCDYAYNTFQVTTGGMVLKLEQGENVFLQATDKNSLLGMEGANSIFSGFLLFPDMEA
T1 sequence (P02747 29-245): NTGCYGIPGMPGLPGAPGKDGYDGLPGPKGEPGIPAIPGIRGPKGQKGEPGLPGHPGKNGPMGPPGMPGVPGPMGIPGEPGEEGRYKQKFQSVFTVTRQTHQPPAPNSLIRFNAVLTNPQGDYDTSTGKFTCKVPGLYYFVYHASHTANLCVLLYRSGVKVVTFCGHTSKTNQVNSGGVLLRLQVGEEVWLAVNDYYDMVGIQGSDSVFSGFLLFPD
Text: Acid soluble rat-tail type I collagen, bovine type II collagen, and mouse type IV collagen were purchased from BD Bioscience (San Jose, Calif.). Complement component C1q from human serum, fibronectin from bovine plasma, and laminin from Engelbreth-Holm-Swarm murine sarcoma basement membrane were purchased from Sigma-Aldrich. ProMMP-1, and p-aminophenylmercuric acetate were acquired from EMD millipore. Human umbilical vein endothelial cells (HUVECs) and EGM-2 cell growth media were obtained from Lonza (Walkersville, Md.). Precast NuPAGE® Novex 4-12% Bis-Tris Gel (1.0 mm, 12 well), Novex® Sharp unstained protein standard, and SDS-PAGE running buffer, sample buffer, and other SDS-PAGE reagents were purchased from Life Technologies.
SDS-PAGE staining and imaging. Proteins were resolved on NuPAGE® Novex 4-12% bis-tris gels under denaturating conditions using an XCell SureLock™ Mini-Cell electrophoresis system (Life Technologies). NuPAGE® MOPS SDS running buffer containing 50 mM MOPS, 50 mM Tris Base, 0.1% SDS, and 1 mM EDTA (pH 7.7) was used. […] The fluorescence intensities of the protein bands were quantified using GE ImageQuant™ TL software. After fluorescence imaging, all gels were further stained with coomassie brilliant blue (CB) G-250 (Bio-Rad) for 2-3 hr followed by washing, and imaging under white light illumination using a Gel Doc EQ system (BioRad).

[1] = target: T2, MMP-1 cleaved type I collagen (Rattus norvegicus, UniProt P02454+P02466); assay: Photo-triggered CMP binding assay on MMP-1 digested collagen; details: MMP-1 digested collagens after the 37° C. incubation; UV-activated
T2 construct: purchased BD Science (collagen); EMD Millipore (ProMMP-1); host or cells: rat tail; digested in house
T2 sequence (P02454 152-942 limits assumed): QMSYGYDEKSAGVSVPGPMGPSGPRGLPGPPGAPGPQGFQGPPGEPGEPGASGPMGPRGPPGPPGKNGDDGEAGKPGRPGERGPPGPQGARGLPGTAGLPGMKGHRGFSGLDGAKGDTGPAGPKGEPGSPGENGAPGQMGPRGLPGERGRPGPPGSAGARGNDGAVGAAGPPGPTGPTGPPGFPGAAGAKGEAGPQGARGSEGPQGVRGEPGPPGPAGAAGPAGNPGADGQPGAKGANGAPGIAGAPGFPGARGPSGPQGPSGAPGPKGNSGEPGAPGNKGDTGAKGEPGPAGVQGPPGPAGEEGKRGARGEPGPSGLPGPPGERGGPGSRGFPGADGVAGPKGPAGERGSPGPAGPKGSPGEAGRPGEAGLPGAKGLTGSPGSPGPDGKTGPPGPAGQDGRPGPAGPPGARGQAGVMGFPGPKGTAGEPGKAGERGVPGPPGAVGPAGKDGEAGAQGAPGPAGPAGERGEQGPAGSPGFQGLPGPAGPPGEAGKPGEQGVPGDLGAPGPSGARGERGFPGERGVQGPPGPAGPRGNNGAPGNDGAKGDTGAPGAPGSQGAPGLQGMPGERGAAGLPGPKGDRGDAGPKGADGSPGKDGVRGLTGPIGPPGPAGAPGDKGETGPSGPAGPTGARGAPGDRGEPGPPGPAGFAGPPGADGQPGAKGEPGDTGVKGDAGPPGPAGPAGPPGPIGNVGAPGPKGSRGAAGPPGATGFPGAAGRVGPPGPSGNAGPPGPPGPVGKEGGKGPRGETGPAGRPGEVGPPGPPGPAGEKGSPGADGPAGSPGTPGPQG
T2 sequence (P02454 943-1207 limits assumed): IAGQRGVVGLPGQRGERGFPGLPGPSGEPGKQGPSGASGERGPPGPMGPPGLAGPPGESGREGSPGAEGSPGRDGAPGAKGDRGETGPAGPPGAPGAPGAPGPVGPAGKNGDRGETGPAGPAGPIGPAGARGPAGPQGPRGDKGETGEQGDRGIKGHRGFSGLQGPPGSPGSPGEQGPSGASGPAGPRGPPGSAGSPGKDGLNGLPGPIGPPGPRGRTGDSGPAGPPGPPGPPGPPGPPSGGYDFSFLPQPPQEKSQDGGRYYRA
T2 sequence (P02466 86-871 limits assumed): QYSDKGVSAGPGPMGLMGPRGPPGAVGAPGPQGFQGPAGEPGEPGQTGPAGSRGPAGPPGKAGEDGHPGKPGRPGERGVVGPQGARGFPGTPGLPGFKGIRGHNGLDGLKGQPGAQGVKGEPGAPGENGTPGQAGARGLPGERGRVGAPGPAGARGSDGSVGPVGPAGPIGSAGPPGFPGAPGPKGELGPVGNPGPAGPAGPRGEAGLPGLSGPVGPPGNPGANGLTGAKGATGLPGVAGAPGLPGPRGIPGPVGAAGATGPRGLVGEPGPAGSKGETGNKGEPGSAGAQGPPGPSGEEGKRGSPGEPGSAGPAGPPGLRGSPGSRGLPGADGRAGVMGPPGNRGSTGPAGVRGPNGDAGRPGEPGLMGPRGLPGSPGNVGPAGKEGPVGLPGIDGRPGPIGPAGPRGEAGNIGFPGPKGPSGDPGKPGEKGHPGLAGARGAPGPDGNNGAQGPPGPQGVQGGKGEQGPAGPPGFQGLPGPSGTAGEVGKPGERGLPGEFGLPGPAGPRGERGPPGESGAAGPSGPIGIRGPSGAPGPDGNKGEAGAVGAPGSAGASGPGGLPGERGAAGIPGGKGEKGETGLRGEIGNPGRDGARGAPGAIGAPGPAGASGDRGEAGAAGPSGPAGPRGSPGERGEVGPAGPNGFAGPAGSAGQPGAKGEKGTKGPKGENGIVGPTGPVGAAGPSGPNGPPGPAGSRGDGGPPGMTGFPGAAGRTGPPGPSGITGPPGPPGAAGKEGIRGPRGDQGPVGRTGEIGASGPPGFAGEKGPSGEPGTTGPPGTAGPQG
T2 sequence (P02466 872-1125 limits assumed): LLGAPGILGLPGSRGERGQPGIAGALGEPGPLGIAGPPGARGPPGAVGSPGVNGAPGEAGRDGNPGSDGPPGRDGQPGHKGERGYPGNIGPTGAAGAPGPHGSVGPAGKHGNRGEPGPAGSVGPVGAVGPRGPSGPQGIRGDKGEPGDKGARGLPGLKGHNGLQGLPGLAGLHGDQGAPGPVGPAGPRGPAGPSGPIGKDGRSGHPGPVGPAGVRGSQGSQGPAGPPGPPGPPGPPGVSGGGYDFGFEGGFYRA
Description: MMP-1 digestion of type I collagen and CMP binding assays. ProMMP-1 (1 μg, EMD Millipore) was activated by p-aminophenylmercuric acetate (1.1 mM) in 132.5 μL of TNC buffer (50 mM Tris-HCl, 0.15 M NaCl, 5 mM CaCl2, 0.02% NaN3, pH 7.5) at 37° C. for 3 hr. Type I collagen (62.6 μg) was subsequently added to the MMP-1 solution and incubated at room temperature for at least 3 days. Digested products were analyzed by SDS-PAGE and circular dichroism spectroscopy (FIG. 12). Wells of nunc black 96-well maxisorp plate were charged with 50 μL of TNC buffer containing 0.5 M glycerol, and 100 μg/mL collagen or MMP-1 cleaved collagen, and incubated at room temperature. The collagen solutions used were either kept at room temperature (22° C.) or incubated at 37° C. for 1 minute just prior to coating. […] Wells were washed extensively with PBSB followed by fluorescence (ex: 489 nm, em: 533 nm) reading with a SpectraMax M-2 microplate reader (Molecular Devices). […] The background fluorescence of empty wells was subtracted from the raw fluorescence data. For estimating the amount of adsorbed protein, un-blocked collagen-coated wells were treated with 100 μM 5-(4,6-dichlorotriazinyl)aminofluorescein (DTAF, 50 μL, in 0.1 M sodium borate buffer) at room temperature for 3 hours, and the fluorescence (ex: 489 nm, em: 533 nm) of the well was measured after washing with 1×PBS. […]

Row | Substance | staining of C1q chains (complement factor C1q) | level of CMP binding, fold higher compared to all other collagens tested [1]
1 | CF-GGG-(GPO)9 [CF(GPO)9] | almost as effectively as collagens | –
2 | CF-GGG-(GPO)4^NBGPO(GPO)4 [CF^NB(GPO)9] | – | 4-10 fold
